Source: US20110319392A1, “Thiazole Sulfonamide And Oxazole Sulfonamide Kinase Inhibitors” (priority 2009, published 2011)

How the values were obtained:
HN5 tumor cells = assay: Cell growth inhibition assay (CellTiter-Glo), HN5; format: cell-based, Human; details: Homo sapiens, 72 h; 3 days incubation
In short: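 Cells seeded at 500/well (HN5 and HT-29 in high-glucose DMEM/10% FBS; A375P F11s in RPMI/10% FBS with pyruvate; SK-MEL-3 in McCoy's 5A/15% FBS), then exposed next day to 1:3 serial compound dilutions (0.2% DMSO) for 3 days at 37° C. CellTiter-Glo luminescence measured ATP; IC50 derived by 4-parameter fit.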

B-Raf = B-Raf (Homo sapiens, UniProt P15056); assay: B-Raf Accelerated MEK ATPase assay (BRAMA), Method A or B; format: biochemical
In short: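 ADP production, initiated by catalytic activated Raf with unphosphorylated MEK, is followed by NADH oxidation through a PK/LDH coupled system. Method B differs from the kinetic Method A by a single end-point read and 150 nM final MEK.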

[1] = Method B: final MEK 150 nM, single end point read

Chain of B-Raf (P15056 whole entry): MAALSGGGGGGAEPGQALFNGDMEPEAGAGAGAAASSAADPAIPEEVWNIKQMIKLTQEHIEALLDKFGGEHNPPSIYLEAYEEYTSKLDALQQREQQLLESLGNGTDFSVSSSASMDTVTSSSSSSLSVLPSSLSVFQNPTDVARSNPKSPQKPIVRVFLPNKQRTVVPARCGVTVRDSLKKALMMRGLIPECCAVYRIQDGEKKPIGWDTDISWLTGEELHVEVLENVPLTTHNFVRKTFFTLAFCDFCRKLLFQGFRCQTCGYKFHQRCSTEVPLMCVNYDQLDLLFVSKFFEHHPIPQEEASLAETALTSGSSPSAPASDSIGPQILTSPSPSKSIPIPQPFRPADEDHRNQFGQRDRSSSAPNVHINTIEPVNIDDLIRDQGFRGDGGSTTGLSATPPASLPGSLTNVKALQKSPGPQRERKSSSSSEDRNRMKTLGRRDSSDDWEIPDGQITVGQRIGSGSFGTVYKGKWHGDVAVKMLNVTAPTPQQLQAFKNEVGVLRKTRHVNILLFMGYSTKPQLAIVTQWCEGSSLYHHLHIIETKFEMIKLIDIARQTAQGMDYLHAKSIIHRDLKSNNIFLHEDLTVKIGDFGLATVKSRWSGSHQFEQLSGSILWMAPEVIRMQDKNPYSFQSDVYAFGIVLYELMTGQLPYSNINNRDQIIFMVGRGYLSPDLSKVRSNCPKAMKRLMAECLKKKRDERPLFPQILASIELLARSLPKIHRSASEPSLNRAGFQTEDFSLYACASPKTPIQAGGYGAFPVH

| IC50 (HN5 tumor cells) [nM] | IC50 (B-Raf; [1]) [nM] | IC50 (B-Raf; Method A) [nM] | Structure (SMILES) |
| --- | --- | --- | --- |
| > 1000 | < 100 | – | CCc1nc(-c2cccc(NS(=O)(=O)c3ccccc3)c2)c(-c2ccnc(Nc3ccc(N4CCN(C(C)=O)CC4)nc3)n2)s1 [Example 3, N-{3-[5-(2-{[6-(4-Acetyl-1-piperazinyl)-3-pyridinyl]amino}-4-pyrimidinyl)-2-ethyl-1,3-thiazol-4-yl]phenyl}benzenesulfonamide] |
| 100 to 1000 | – | 100 to 1000 | CCc1nc(-c2cccc(NS(=O)(=O)c3ccccc3)c2)c(-c2ccnc(Nc3ccc(N4CCOCC4)c(F)c3)n2)s1 [Example 4] |
| 100 to 1000 | < 100 | – | CC(=O)N1CCc2cc(Nc3nccc(-c4sc(C(C)C)nc4-c4cccc(NS(=O)(=O)c5ccccc5)c4)n3)ccc21 [Example 71] |
| 100 to 1000 | < 100 | – | CC(C)c1nc(-c2cccc(NS(=O)(=O)c3ccccc3)c2)c(-c2ccnc(Nc3ccc(F)c(N4CCN(CCS(C)(=O)=O)CC4)c3)n2)s1 [Example 73] |
| > 1000 | < 100 | – | CC(C)c1nc(-c2cccc(NS(=O)(=O)c3ccccc3)c2)c(-c2ccnc(Nc3ccc(N4CCN(CCS(C)(=O)=O)CC4)c(F)c3F)n2)s1 [Example 74] |
| > 1000 | < 100 | – | COc1cc(N2CCN(CCF)CC2)ccc1Nc1nccc(-c2sc(C(C)C)nc2-c2cccc(NS(=O)(=O)c3c(F)cccc3F)c2)n1 [Example 79] |
| 100 to 1000 | < 100 | – | CC(C)c1nc(-c2cc(F)cc(NS(=O)(=O)c3c(F)cccc3F)c2)c(-c2ccnc(Nc3ccc(N4CCOCC4)c(F)c3)n2)s1 [Example 85] |
| 100 to 1000 | < 100 | – | CC(C)c1nc(-c2cccc(NS(=O)(=O)c3ccccc3)c2)c(-c2ccnc(Nc3ccc(N4CCOCC4)cn3)n2)s1 [Example 92] |
| > 1000 | < 100 | – | C=C(C)c1nc(-c2cccc(NS(=O)(=O)c3c(F)cccc3F)c2)c(-c2ccnc(Nc3ccc(N4CCN(CCF)CC4)c(F)c3)n2)s1 [Example 93] |
| 100 to 1000 | < 100 | – | CC(=O)N1CCN(c2ccc(Nc3nccc(-c4sc(C(C)C)nc4-c4cccc(NS(=O)(=O)c5cc(F)ccc5F)c4)n3)cn2)CC1 [Example 96] |

The remaining lines, values behind:

| Structure (SMILES) | IC50 (HN5 tumor cells) [nM] | IC50 (B-Raf; [1]) [nM] | IC50 (B-Raf; Method A) [nM] |
| --- | --- | --- | --- |
| CCc1nc(-c2cccc(NS(=O)(=O)c3ccccc3)c2)c(-c2ccnc(Nc3ccc(OC)c(N4CCN(CCS(C)(=O)=O)CC4)c3)n2)s1 [Example 5, N-[3-(2-Ethyl-5-{2-[(4-(methyloxy)-3-{4-[2-(methylsulfonyl)ethyl]-1-piperazinyl}phenyl)amino]-4-pyrimidinyl}-1,3-thiazol-4-yl)phenyl]benzenesulfonamide] | 100 to 1000 | – | < 100 |
| CC(C)c1nc(-c2cccc(NS(=O)(=O)c3ccccc3)c2)c(-c2ccnc(Nc3ccc(CC4CCN(CCS(C)(=O)=O)CC4)c(F)c3)n2)s1 [Example 72] | 100 to 1000 | < 100 | – |
| CC(C)c1nc(-c2cccc(NS(=O)(=O)c3c(F)cccc3F)c2)c(-c2ccnc(Nc3ccc(N4CCN(C(C)C)CC4)cc3O)n2)s1 [Example 78] | > 1000 | < 100 | – |
| CC(C)c1nc(-c2cccc(NS(=O)(=O)c3c(F)cccc3F)c2)c(-c2ccnc(Nc3ccc(N4CCN(CCO)CC4)nc3)n2)s1 [Example 80] | 100 to 1000 | < 100 | – |
| CC(C)c1nc(-c2cccc(NS(=O)(=O)c3c(F)cccc3F)c2)c(-c2ccnc(Nc3cccc(N4CCN(C)CC4)c3)n2)s1 [Example 81] | 100 to 1000 | < 100 | – |
| CC(C)c1nc(-c2cccc(NS(=O)(=O)c3c(F)cccc3F)c2)c(-c2ccnc(Nc3ccc(N4CCCNCC4)nc3)n2)s1 [Example 82] | 100 to 1000 | < 100 | – |
| CC(C)c1nc(-c2cc(F)cc(NS(=O)(=O)c3ccc(F)cc3)c2)c(-c2ccnc(Nc3ccc(N4CCOCC4)c(F)c3)n2)s1 [Example 83] | 100 to 1000 | < 100 | – |
| CC(C)c1nc(-c2cc(F)cc(NS(=O)(=O)c3c(F)cccc3F)c2)c(-c2ccnc(Nc3ccc(N4CCOCC4)nc3)n2)s1 [Example 84] | 100 to 1000 | < 100 | – |
| CC(C)c1nc(-c2cccc(NS(=O)(=O)c3c(F)cccc3F)c2)c(-c2ccnc(Nc3cc(F)c(N4CCN(CCS(C)(=O)=O)CC4)cc3F)n2)s1 [Example 87] | > 1000 | < 100 | – |
| CC(C)c1nc(-c2cccc(NS(=O)(=O)c3c(F)cccc3F)c2)c(-c2ccnc(Nc3ccc(N4CCCN(CCS(C)(=O)=O)CC4)nc3)n2)s1 [Example 88] | 100 to 1000 | < 100 | – |
| CC(C)c1nc(-c2cccc(NS(=O)(=O)c3c(F)cccc3F)c2)c(-c2ccnc(Nc3ccc(N4CC[C@@H](O)C4)nc3)n2)s1 [Example 89] | 100 to 1000 | < 100 | – |
| Cc1cc(N2CCC(N3CCCCC3)CC2)ccc1Nc1nccc(-c2sc(C(C)C)nc2-c2cccc(NS(=O)(=O)c3c(F)cccc3F)c2)n1 [Example 91] | > 1000 | < 100 | – |
| CC(C)c1nc(-c2ccc(F)c(NS(=O)(=O)c3c(F)cccc3F)c2)c(-c2ccnc(Nc3ccc(N4CCN(CCS(C)(=O)=O)CC4)c(F)c3)n2)s1 [Example 95] | 100 to 1000 | < 100 | – |
